Results published in patent US20250333424A1, “ANTIVIRAL COMPOUNDS” (Gilead Sciences, Inc., priority 2024, published 2025).

Test system: monocytic THP1 cells infected with HIV VSV-G pseudotyped GFP-NEF reporter virus
Assay: cells
Format: cell-based
Conditions: Human immunodeficiency virus 1, THP-1, 24 h

SMILES	EC50 [nM]
Cc1cc([C@@H]2C[C@@H]2C#N)cc(C)c1Oc1nc(NC23CC(C#N)(C2)C3)nc2nn(C)cc12 (racemic) [Compound 131, (rac)-3-[[4-[4-[(1R,2S)-2-cyanocyclopropyl]-2,6-dimethyl-phenoxy]-2-methyl-pyrazolo[3,4-d]pyrimidin-6-yl]amino]bicyclo[1.1.1]pentane-1-carbonitrile]	1470
Cc1cc([C@H]2C[C@@H]2C#N)cc(C)c1Oc1nc(NC23CC(C#N)(C2)C3)nc2nn(C)cc12 (racemic) [Compound 132, (rac)-3-((4-(4-((1S,2S)-2-cyanocyclopropyl)-2,6-dimethylphenoxy)-2-methyl-2H-pyrazolo[3,4-d]pyrimidin-6-yl)amino)bicyclo[1.1.1]pentane-1-carbonitrile]	267
Cc1cc([C@@H]2C[C@H]2C#N)cc(C)c1Oc1nc(NC23CC(C#N)(C2)C3)nc2nn(C)cc12 (racemic) [Compound 134, (rac)-3-((4-(4-((1R,2R)-2-cyanocyclopropyl)-2,6-dimethylphenoxy)-2-methyl-2H-pyrazolo[3,4-d]pyrimidin-6-yl)amino)bicyclo[1.1.1]pentane-1-carbonitrile]	262
Cc1cc(/C=C/C#N)cc(C)c1Oc1nc(NC23CC(C#N)(C2)C3)nc2c1C1OCCCN1C2=O (racemic) [Compound 278, (E)-3-((4-(4-(2-cyanovinyl)-2,6-dimethylphenoxy)-10-oxo-4b,7,8,10-tetrahydro-6H-pyrimido[5′,4′:3,4]pyrrolo[2,1-b][1,3]oxazin-2-yl)amino)bicyclo[1.1.1]pentane-1-carbonitrile]	30.8
Cc1cc(/C=C/C#N)cc(C)c1Oc1nc(NC23CC(C#N)(C2)C3)nc2c1[C@@]1(C)O[C@H]3CC[C@H]3N1C2=O (relative stereo) [Compound 285, 3-(((4bR,5aS,7aR)-4-(4-((E)-2-cyanovinyl)-2,6-dimethylphenoxy)-4b-methyl-9-oxo-4b,5a,6,7,7a,9-hexahydrocyclobuta[4′,5′]oxazolo[3′,2′:1,5]pyrrolo[3,4-d]pyrimidin-2-yl)amino)bicyclo[1.1.1]pentane-1-carbonitrile]	92.5
Cc1cc(/C=C/C#N)cc(C)c1Oc1nc(NC23CC(C#N)(C2)C3)nc2nnn(C(F)F)c12 (single isomer, unassigned) [Compound 11, (E)-3-((7-(4-(2-cyanovinyl)-2,6-dimethylphenoxy)-1-(difluoromethyl)-1H-[1,2,3]triazolo[4,5-d]pyrimidin-5-yl)amino)bicyclo[1.1.1]pentane-1-carbonitrile]	27.7
Cc1cc(/C=C/C#N)cc(C)c1Oc1nc(NC23CC(C#N)(C2)C3)nc2nc(C)n(Cc3ccn[nH]3)c12 (single isomer, unassigned) [Compound 18, (E)-3-((7-((1H-pyrazol-5-yl)methyl)-6-(4-(2-cyanovinyl)-2,6-dimethylphenoxy)-8-methyl-7H-purin-2-yl)amino)bicyclo[1.1.1]pentane-1-carbonitrile]	24
Cc1cc(/C=C/C#N)cc(C)c1Oc1nc(NC23CC(C#N)(C2)C3)nc2c1nc(C)n2Cc1ccn[nH]1 (single isomer, unassigned) [Compound 19, (E)-3-((9-((1H-pyrazol-5-yl)methyl)-6-(4-(2-cyanovinyl)-2,6-dimethylphenoxy)-8-methyl-9H-purin-2-yl)amino)bicyclo[1.1.1]pentane-1-carbonitrile]	90.9
Cc1cc(/C=C/C#N)cc(C)c1Oc1nc(NC23CC(C#N)(C2)C3)nc2nc(C)n(CC(F)F)c12 (single isomer, unassigned) [Compound 20, (E)-3-((6-(4-(2-cyanovinyl)-2,6-dimethylphenoxy)-7-(2,2-difluoroethyl)-8-methyl-7H-purin-2-yl)amino)bicyclo[1.1.1]pentane-1-carbonitrile]	25.5
Cc1cc(/C=C/C#N)cc(C)c1Oc1nc(NC23CC(C#N)(C2)C3)nc2c1nc(C)n2CC(F)F (single isomer, unassigned) [Compound 21, (E)-3-((6-(4-(2-cyanovinyl)-2,6-dimethylphenoxy)-9-(2,2-difluoroethyl)-8-methyl-9H-purin-2-yl)amino)bicyclo[1.1.1]pentane-1-carbonitrile]	280
Cc1cc(/C=C/C#N)cc(C)c1Oc1nc(NC23CC(C#N)(C2)C3)nc2nn(C(F)F)nc12 (single isomer, unassigned) [Compound 22, (E)-3-((7-(4-(2-cyanovinyl)-2,6-dimethylphenoxy)-2-(difluoromethyl)-2H-[1,2,3]triazolo[4,5-d]pyrimidin-5-yl)amino)bicyclo[1.1.1]pentane-1-carbonitrile]	259
Cc1cc(/C=C/C#N)cc(C)c1Oc1nc(NC23CC(C#N)(C2)C3)nc2nn(C)c(Cl)c12 (single isomer, unassigned) [Compound 95, (E)-3-((3-chloro-4-(4-(2-cyanovinyl)-2,6-dimethylphenoxy)-1-methyl-11H-pyrazolo[3,4-d]pyrimidin-6-yl)amino)bicyclo[1.1.1]pentane-1-carbonitrile]	30.6
Cc1cc(/C=C/C#N)cc(C)c1Oc1nc(NC23CC(C#N)(C2)C3)nc2c1c(Cl)nn2C (single isomer, unassigned) [Compound 96, (E)-3-((3-chloro-4-(4-(2-cyanovinyl)-2,6-dimethylphenoxy)-1-methyl-11H-pyrazolo[3,4-d]pyrimidin-6-yl)amino)bicyclo[1.1.1]pentane-1-carbonitrile]	360
Cc1cc([C@H]2C[C@@H]2C#N)cc(C)c1Oc1nc(NC23CC(C#N)(C2)C3)nc2nn(C)cc12 (single isomer, unassigned) [Compound 133]	511
Cc1cc(/C=C/C#N)cc(C)c1Oc1nc(NC23CC(C#N)(C2)C3)nc2nc3n(c12)CCCO3 (single isomer, unassigned) [Compound 182, (E)-3-((4-(4-(2-cyanovinyl)-2,6-dimethylphenoxy)-7,8-dihydro-6H-[1,3]oxazino[2,3-f]purin-2-yl)amino)bicyclo[1.1.1]pentane-1-carbonitrile]	34.2
Cc1cc(/C=C/C#N)cc(C)c1Oc1nc(NC23CC(C#N)(C2)C3)nc2c1nc1n2CCCO1 (single isomer, unassigned) [Compound 183, (E)-3-((4-(4-(2-cyanovinyl)-2,6-dimethylphenoxy)-8,9-dihydro-7H-[1,3]oxazino[3,2-e]purin-2-yl)amino)bicyclo[1.1.1]pentane-1-carbonitrile]	80
Cc1cc(/C=C/C#N)cc(C)c1Oc1nc(NC23CC(C#N)(C2)C3)nc2nc3n(c12)C[C@@H](F)CO3 (single isomer, unassigned) [Compound 191]	51.8

SMILES	EC50 [nM]
Cc1cc(/C=C/C#N)cc(C)c1Oc1nc(NC23CC(C#N)(C2)C3)nc2nc3n(c12)C[C@H](F)CO3 (single isomer, unassigned) [Compound 192]	27.1
Cc1cc(/C=C/C#N)cc(C)c1Oc1nc(NC23CC(C#N)(C2)C3)nc2nc3n(c12)C[C@@H](O)CO3 (single isomer, unassigned) [Compound 193]	319
Cc1cc(/C=C/C#N)cc(C)c1Oc1nc(NC23CC(C#N)(C2)C3)nc2nc3n(c12)C[C@H](O)CO3 (single isomer, unassigned) [Compound 194]	49.7
Cc1cc(/C=C/C#N)cc(C)c1Oc1nc(NC23CC(C#N)(C2)C3)nc2c1[C@H]1OC[C@H](F)CN1C2=O (single isomer, unassigned) [Compound 281]	74.2
Cc1cc(/C=C/C#N)cc(C)c1Oc1nc(NC23CC(C#N)(C2)C3)nc2c1[C@@H]1OC[C@H](F)CN1C2=O (single isomer, unassigned) [Compound 282]	50.1
Cc1cc(/C=C/C#N)cc(C)c1Oc1nc(NC23CC(C#N)(C2)C3)nc2c1[C@@]1(C)O[C@@H]3CC[C@@H]3N1C2=O (single isomer, unassigned) [Compound 283]	44.8
Cc1cc(/C=C/C#N)cc(C)c1Oc1nc(NC23CC(C#N)(C2)C3)nc2c1[C@]1(C)O[C@@H]3CC[C@@H]3N1C2=O (single isomer, unassigned) [Compound 284]	34.9
CO[C@H]1COC2(C)c3c(Oc4c(C)cc(/C=C/C#N)cc4C)nc(NC45CC(C#N)(C4)C5)nc3C(=O)N2C1 (single isomer, unassigned) [Example 235]	22.8
Cc1cc(/C=C/C#N)cc(C)c1Oc1nc(NC23CC(C#N)(C2)C3)nc2c1C1(C)O[C@H](C)CCN1C2=O (single isomer, unassigned) [Example 242]	36.4
Cc1cc(/C=C/C#N)cc(C)c1Oc1nc(NC23CC(C#N)(C2)C3)nc2c1C1(C)OC[C@@H](C)CN1C2=O (single isomer, unassigned) [Example 243]	219
CO[C@@H]1COC2(C)c3c(Oc4c(C)cc(/C=C/C#N)cc4C)nc(NC45CC(C#N)(C4)C5)nc3C(=O)N2C1 (single isomer, unassigned) [Example 244]	111
Cc1cc(/C=C/C#N)cc(C)c1Oc1nc(NC23CC(C#N)(C2)C3)nc2c1C1(C)OC[C@H](C)CN1C2=O (single isomer, unassigned) [Example 245]	22.3
Cc1cc(/C=C/C#N)cc(C)c1Oc1nc(NC23CC(C#N)(C2)C3)nc2c1[C@]1(C)O[C@@H](C)CN1C2=O (single isomer, unassigned) [Example 248]	121
Cc1cc(/C=C/C#N)cc(C)c1Oc1nc(NC23CC(C#N)(C2)C3)nc2c1[C@@]1(C)O[C@@H](C)CN1C2=O (single isomer, unassigned) [Example 249]	75.7
Cc1cc(/C=C/C#N)cc(C)c1Oc1nc(NC23CC(C#N)(C2)C3)nc2c1C1(C)O[C@H](C)CN1C2=O (single isomer, unassigned) [Example 251]	73.2
CO[C@H]1COC2c3c(Oc4c(C)cc(/C=C/C#N)cc4C)nc(NC45CC(C#N)(C4)C5)nc3C(=O)N2C1 (single isomer, unassigned) [Example 252]	77.1
CCOc1cc(/C=C/C#N)cc(Cl)c1Oc1nc(NC23CC(C#N)(C2)C3)nc2[nH]nc(C)c12 [Compound 3, (E)-3-((4-(2-chloro-4-(2-cyanovinyl)-6-ethoxyphenoxy)-3-methyl-11H-pyrazolo[3,4-d]pyrimidin-6-yl)amino)bicyclo[1.1.1]pentane-1-carbonitrile]	29.6
